Columns and labels:
Assay in all cases: relative viability (nuclei count vs DMSO), 5 days (fraction); higher = more cells survive
[1] = compound: CC(C)C[C@H](NC(=O)[C@H](CCc1ccccc1)NC(=O)CN1CCOCC1)C(=O)N[C@@H](Cc1ccccc1)C(=O)N[C@@H](CC(C)C)C(=O)[C@@]1(C)CO1 [Carfilzomib] + CC1(C)CCC(c2ccc(Cl)cc2)=C(CN2CCN(c3ccc(C(=O)NS(=O)(=O)c4ccc(N[C@H](CCN5CCOCC5)CSc5ccccc5)c(S(=O)(=O)C(F)(F)F)c4)cc3)CC2)C1 [Navitoclax] (partner 0.5 µM)
In short: (§1)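 For relative viability, nuclei counts in treated wells were divided by those in vehicle wells. Lung cancer cell lines had been pin-tool dosed in 1536-well plates the day after seeding and cultured for 5 days, then fixed and stained in one step (final 0.05% Triton X-100, 1% formaldehyde, 1 ug/ml Hoechst) and imaged at 4×. Doses were one drug alone or a fixed anchor-drug dose plus five library-drug doses (not always all listed) in √10 steps, and values are duplicate-plate medians.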

[2] = compound: CC(C)C[C@H](NC(=O)[C@H](CCc1ccccc1)NC(=O)CN1CCOCC1)C(=O)N[C@@H](Cc1ccccc1)C(=O)N[C@@H](CC(C)C)C(=O)[C@@]1(C)CO1 [Carfilzomib] + C[C@]1(O)C[C@@H](c2nc(-c3ccc4ccc(-c5ccccc5)nc4c3)c3c(N)nccn32)C1 [Linsitinib] (partner 1 µM)
In short: as §1

[3] = compound: C[C@@H](Oc1cc(-c2cnn(C3CCNCC3)c2)cnc1N)c1c(Cl)ccc(F)c1Cl [Crizotinib] + C[C@]1(O)C[C@@H](c2nc(-c3ccc4ccc(-c5ccccc5)nc4c3)c3c(N)nccn32)C1 [Linsitinib] (partner 1 µM)
In short: as §1

[4] = compound: O=C(c1cc(Cc2n[nH]c(=O)c3ccccc23)ccc1F)N1CCN(C(=O)C2CC2)CC1 [Olaparib] + CC(C)C[C@H](NC(=O)[C@H](Cc1ccccc1)NC(=O)c1cnccn1)B(O)O [Bortezomib] (partner 0.002 µM)
In short: as §1

Cell Line | relative viability ([1]; first compound 0.001 µM) | relative viability ([1]; first compound 0.003162 µM) | relative viability ([1]; first compound 0.01 µM) | relative viability ([1]; first compound 0.03162 µM) | relative viability ([1]; first compound 0.1 µM) | relative viability ([2]; first compound 0.001 µM) | relative viability ([2]; first compound 0.003162 µM) | relative viability ([2]; first compound 0.01 µM) | relative viability ([2]; first compound 0.03162 µM) | relative viability ([2]; first compound 0.1 µM) | relative viability ([3]; first compound 0.01 µM) | relative viability ([3]; first compound 0.03162 µM) | relative viability ([3]; first compound 0.1 µM) | relative viability ([3]; first compound 0.3162 µM) | relative viability ([3]; first compound 1 µM) | relative viability ([4]; first compound 0.08 µM) | relative viability ([4]; first compound 0.253 µM) | relative viability ([4]; first compound 2.53 µM) | relative viability ([4]; first compound 8 µM)
NCI-H1703 | 1.13 | 1.17 | 0.164 | 0.151 | 0.102 | 0.91 | 1.22 | 0.44 | 0.132 | 0.0996 | 0.773 | 0.852 | 0.727 | 0.777 | 0.654 | 0.367 | 0.301 | 0.445 | 0.417
NCI-H1734 | 0.831 | 1.05 | 0.803 | 0.584 | 0.0981 | 0.871 | 0.986 | 0.855 | 0.715 | 0.205 | 0.888 | 0.843 | 0.851 | – | 0.82 | 1.06 | 0.835 | 0.91 | 0.614
NCI-H1755 | 0.972 | 0.989 | 0.994 | 0.841 | 0.198 | 0.984 | 0.986 | 0.982 | 0.97 | 0.218 | 0.872 | – | 1.07 | 0.964 | 0.978 | 1.03 | 0.92 | 0.921 | 0.893
NCI-H1792 | 0.575 | 0.628 | 0.563 | 0.612 | 0.555 | 0.492 | 0.632 | 0.365 | 0.633 | 0.339 | 0.519 | 0.558 | 0.586 | 0.473 | 0.559 | 1.02 | 0.735 | 0.804 | 0.784
NCI-H1915 | 0.717 | 0.785 | 0.762 | 0.438 | 0.0486 | 1.1 | 1.1 | 1.05 | 0.655 | 0.106 | 1.02 | 1.09 | 1.1 | – | 1.1 | 0.957 | 0.758 | 0.792 | 0.645
NCI-H1975 | 1.05 | 1.23 | 0.416 | 0.213 | 0.144 | 0.885 | 0.896 | 0.562 | 0.129 | 0.132 | 0.926 | 1.05 | 0.91 | 1.07 | 1.01 | 0.424 | 0.364 | 0.403 | 0.319
NCI-H1993 | 0.856 | 0.773 | 1.08 | 0.861 | 0.527 | 0.758 | 0.773 | 0.712 | 0.607 | 0.563 | 0.711 | 0.729 | 0.71 | 0.76 | 0.71 | 1.06 | 1.16 | 1.06 | 1.18
NCI-H2009 | 1.24 | 1.2 | 1.15 | 0.993 | 0.0572 | 1.24 | 1.28 | 1.22 | 0.494 | 0.0639 | 1.17 | 1.17 | 1.24 | 1.17 | 1.17 | 1.06 | 0.953 | 0.914 | 0.638
NCI-H2023 | 1 | 0.967 | 1.02 | 0.907 | 0.0939 | 0.6 | 0.768 | 0.653 | 0.607 | 0.0783 | 0.734 | 0.592 | 0.6 | 0.486 | 0.515 | 1.13 | 0.884 | 0.931 | 0.675
NCI-H2085 | 1.08 | 1.23 | 1.02 | 0.436 | 0.242 | 0.843 | 0.835 | 0.778 | 0.418 | 0.235 | 0.8 | 1.03 | 1 | 0.926 | 0.836 | 1.25 | 0.92 | 0.981 | 0.808
NCI-H2087 | 1.07 | 0.97 | 0.721 | 0.115 | 0.0804 | 0.936 | 1.05 | 0.851 | 0.108 | 0.119 | 0.966 | 0.976 | 0.942 | 0.92 | 1.07 | 0.96 | 0.753 | 0.842 | 0.66
NCI-H2126 | 0.826 | 0.884 | 0.871 | 0.865 | 0.592 | 0.703 | 0.793 | 0.695 | 0.764 | 0.58 | 0.73 | 0.724 | 0.706 | 0.691 | 0.717 | 1.22 | 0.994 | 1.07 | 1.08
NCI-H2228 | 1.06 | 1.56 | 0.788 | 0.699 | 0.0563 | 0.592 | 1.04 | 0.524 | 0.156 | 0.103 | 0.629 | 0.733 | 0.718 | 0.371 | 0.328 | 1.02 | 0.821 | 1.02 | 0.661
NCI-H2347 | 0.698 | 0.931 | 0.733 | 0.512 | 0.235 | 0.983 | 1.06 | 0.962 | 0.785 | 0.391 | 0.913 | – | 1.03 | – | 0.993 | 1.28 | 0.715 | 0.974 | 0.676
NCI-H2405 | – | 1.26 | 1.04 | 0.108 | 0.092 | – | 1.19 | 1.01 | 0.389 | 0.16 | 0.885 | 0.897 | 0.882 | 1.04 | 0.919 | 1.04 | 0.914 | 1.01 | 0.934
NCI-H3122 | 1.03 | 1.07 | 1.05 | 0.992 | 0.672 | 0.958 | 1.05 | 0.95 | 1 | 0.806 | 1.02 | 1.03 | 1.08 | 1.01 | 1 | 1.01 | 0.985 | 0.993 | 0.947
PC-3 [JPC-3] | 0.74 | 0.84 | 0.761 | 0.705 | 0.138 | 1 | 0.881 | 1 | 0.86 | 0.466 | 0.935 | 0.977 | 1.04 | 0.9 | 0.973 | 0.991 | 0.692 | 0.852 | 0.846
PC-14 | 1 | 1.05 | 1.05 | 0.133 | 0.0977 | 1.09 | 0.937 | 1.08 | 0.215 | 0.12 | 0.913 | – | 0.974 | 0.905 | 1.02 | 1.04 | 0.892 | 0.78 | 0.682
RERF-LC-KJ | 0.972 | 1.13 | 0.608 | 0.218 | 0.252 | 0.888 | 0.919 | 1.05 | 0.776 | 0.353 | 0.972 | 0.94 | – | 0.935 | – | 1.19 | 1.14 | 1.03 | 1.06
SK-LU-1 | 0.77 | 0.896 | 0.286 | 0.0872 | 0.0846 | 1.08 | 1.34 | 0.949 | 0.173 | 0.161 | 1.07 | 1.12 | 1.22 | 1.14 | 1.11 | 1.33 | 1.08 | 1.23 | 1.19
SW 1573 | 1.06 | 1.11 | 0.8 | 0.0728 | 0.0538 | 0.736 | 0.881 | 0.75 | 0.268 | 0.0735 | 0.707 | 0.73 | 0.802 | 0.802 | – | 1.03 | 0.987 | 0.769 | 0.619
UMC-11 | 0.278 | 0.326 | 0.332 | 0.269 | 0.103 | 0.981 | 1.03 | 1.01 | 0.949 | 0.224 | – | 1.04 | – | 1.16 | 0.96 | 0.98 | 0.648 | 0.538 | 0.325
